Test results reported in patent US10183015B2, “Heterocyclic compounds and methods of use” (Medivation Technologies LLC, priority 2015, dated 2019).
“And” between values parts separate entries of the source, which are not always exact repeats. Identical values can stand only once.

What was measured:
ACC1 = assay: DIN mouse model: hepatic ACC1 gene expression; assay type: in vivo; parameters: key to 2^DDct: expression relative to vehicle group, normalized to 18S; conditions: for 2^DDct / ACC1 / DDct / Dct: Gene Expression: ACC1, 20 mg/kg group; for 18S: Gene Expression: ACC1 table, 18S reference, 20 mg/kg group
Description: Gene expression analysis. Hepatic expression levels of genes involved in lipid metabolism (FAS, SREBP1, ACC1, SCD1), cholesterol metabolism (HMG-CoAR, LDLR), SREBP proteolysis (SCAP, INSIG1), ER stress (PERK), oxidative stress (NRF2), inflammation (MCP-1), and fibrosis (collagen 1α1) were quantified by RTqPCR. Expression level was normalized to 18S gene expression and relative expression to vehicle group was calculated with the […] method.
Male C57Bl/6J mice (8 weeks old) were housed in enriched ventilated cages (31×12.5×12.7 cm) throughout the experimental phase. Animals' cages litters were changed at least once a week. Animal were housed 5 per cage on inverted 12-hour light cycle (at 09:00 am lights off), 22±2° C. and 55±10% relative humidity. The acclimation period was 20 days. During the acclimation period, all mice were fed a standard diet (RM1 (E) 801492, SDS) and tap water ad libitum. After the acclimation period, mice were fed with the DIN diet (60% fat, cholesterol enriched) and fructose-enriched tap water ad libitum until the end of the experiment.
At 6 weeks of diet, mice were 4-hour fasted (09:00 am to 1:00 pm) and blood (150 μl/EDTA) was collected at 01:00 pm by retro-orbital bleeding under isoflurane anesthesia. Mice were then allocated in 2 homogenous groups (n=12/group) according to their plasma levels of ALT (average levels: 685U/L), AST (average levels: 627U/L) and HOMA-IR index (average value: 4.7), into 2 homogenous groups (see values at day 0 in Tables 15A and 15B ALT/AST and Tables 16A and 16B for HOMA-IR). Mice were then treated once daily by oral gavage with vehicle (Group 1) or Compound #37 at 20 mg/kg (Group 2) for 70 days.
Hepatic expression levels of genes involved in lipid (FAS, SREBP1, ACC1, SCD1), cholesterol metabolism (HMG-CoAR, LDLR), in SREBP proteolysis (SCAP, INSIG1), in ER stress (PERK), oxidative stress (NRF2), and inflammation (MCP-1) were not changed. However, expression of collagen 1α1, involved in liver fibrosis, was reduced by 66% in mice treated with Compound #37 (p<0.05 vs. vehicle).

ob/ob mice = assay: ob/ob mice: liver triglycerides, fatty acids, total cholesterol; assay type: in vivo, mouse; conditions: 8 weeks; for liver fatty acids / liver total cholesterol / liver triglycerides: ob/ob mice
Description: Groups of mice were either untreated (group 1) or treated for 8 weeks with vehicle (group 2), or with Compound #37 at 5 mg/kg (group 3), 10 mg/kg (group 4), or 20 mg/kg (group 5). Treatment was daily by oral gavage in vehicle (20% HPβCD). Values are presented as mean±standard error of the mean (sem). A t test was performed to compare the untreated group and the vehicle group. Then Compound #37-treated groups were compared to the vehicle-treated group with a 1-way ANOVA+Dunnett's post-test. […] For each test, a p<0.05 was considered significant. Of note, animal #39, group 1 was excluded from the statistical analysis, due to low values for all parameters measured. Some other values were considered as out-liners and excluded from the statistical analysis when the value was far below the mean minus 2 SD. Excluded values are marked with an asterisk in Tables 21-23.

[1] = Short-term Paigen-diet NASH mouse model: Compound #37 plasma concentration 1 hour after final dose; assay type: in vivo; conditions: for concentration at 1 h: male, C57Bl/6J, mouse, plasma, oral
From the text: After 21 days of treatment, mice were 4-hour fasted (9 am to 1 pm). One hour after the last dosing (noon), blood was collected by retro-orbital bleeding (maximal volume on EDTA) under isoflurane anesthesia to measure plasma triglycerides, total cholesterol, non-esterified fatty acid, ALT and AST. Mice were then sacrificed by cervical dislocation, and livers were harvested and weighed. Liver samples from the same lobe were dissected, frozen, and analyzed as described below.
The Paigen diet in the C57Bl/6J mouse strain typically results in an initial acute weight loss that recovers over time (Hebbard & George, 2011; vendor historical unpublished data). […] Dosing of this group was stopped on day 4 and the surviving mice were sacrificed on day 9, 1 hour after a final dose to analyze drug exposure. […] No mice died in the Compound #37 5 mg/kg/day or vehicle control groups (10 mice each group).
The death of animals in the Compound #37 40 mg/kg/day and 20 mg/kg/day groups appears to be related to synergistic weight loss due to a combination of the Paigen diet and the inappetence effects of Compound #37 observed in repeat-dose toxicity studies in rats and dogs. […] Compound #37 mean plasma concentration 1 hour after final dose administration on day 21 was 20.4 μM (±4.33 μM) and 112 μM (±26.0 μM) for the 5 mg/kg and 20 mg/kg groups, respectively. The Compound #37 mean plasma concentration 1 hour after final dose administration for the 4 animals on day 9 in the 40 mg/kg group was 136 μM (±37.1 μM). These exposures at 1 hour after dosing are approximately 2-fold higher than those observed in healthy mice and may be related to altered Compound #37 metabolism in this acute liver injury model.

[2] = 5 mg/kg daily oral gavage, group mean
[3] = 5 mg/kg daily oral gavage, individual animal values, 5 mg/kg
[4] = 10 mg/kg daily oral gavage, group mean
[5] = 10 mg/kg daily oral gavage, individual animal values, 10 mg/kg
[6] = 20 mg/kg daily oral gavage, group mean
[7] = 20 mg/kg daily oral gavage, individual animal values (* = excluded from statistical analysis), 20 mg/kg

With `CC(C)Cc1cc(-c2nc(-c3ccc(NS(=O)(=O)C(F)(F)F)cc3Cl)cs2)ccn1` [Compound 37, N-(3-chloro-4-(2-(2-isobutylpyridin-4-yl)thiazol-4-yl)phenyl)-1,1,1-trifluoromethanesulfonamide] the “2^DDct” value (ACC1; individual animal) was 1.62 and 1.20 and 0.21 and 1.19 and 0.20 and 1.29 and 0.79 and 0.67 and 0.34 and 0.23 and 1.77, the ACC1 (ACC1; individual animal) was 27.74 and 28.17 and 31 and 28.06 and 30.55 and 28.11 and 27.95 and 28.97 and 28.95 and 29.55 and 27.41 and the DDct (ACC1; individual animal) was −0.69 and −0.26 and 2.28 and −0.25 and 2.32 and −0.36 and 0.34 and 0.58 and 1.57 and 2.12 and −0.82. The Dct (ACC1; individual animal) was 15.19 and 15.62 and 18.16 and 15.63 and 18.2 and 15.52 and 16.22 and 16.46 and 17.45 and 18 and 15.06, the “2^DDct” value (ACC1; mean, n 11) was 0.86 and the ACC1 (ACC1; mean, n 11) was 28.8. The DDct (ACC1; mean, n 11) was 0.62, the Dct (ACC1; mean, n 11) was 16.5 and the 18S (ACC1; individual animal, 20 mg/kg) was 12.55 (2×) and 12.84 and 12.43 and 12.35 (2×) and 12.59 and 11.73 and 12.51 and 11.5 and 11.55. For the same compound, the 18S (ACC1; mean, n 11) was 12.3, the hepatic cholesterol concentrations (ob/ob mice) was “no effect” and the liver fatty acids (ob/ob mice; [2]) was 35.9 nmol/mg liver. The liver total cholesterol (ob/ob mice; [2]) was 12.5 μg/mg liver, the liver triglycerides (ob/ob mice; [2]) was 80.3 μg/mg liver and the liver fatty acids (ob/ob mice; [3]) was 21.39 nmol/mg liver and 38.65 nmol/mg liver and 43.56 nmol/mg liver and 43.68 nmol/mg liver and 42.30 nmol/mg liver and 26.81 nmol/mg liver and 31.47 nmol/mg liver and 34.22 nmol/mg liver and 40.04 nmol/mg liver and 36.50 nmol/mg liver. For the same compound, the liver total cholesterol (ob/ob mice; [3]) was 9.57 μg/mg liver and 13.21 μg/mg liver and 16.08 μg/mg liver and 15.08 μg/mg liver and 14.41 μg/mg liver and 9.18 μg/mg liver and 10.40 μg/mg liver and 12.19 μg/mg liver and 13.20 μg/mg liver and 13.39 μg/mg liver, the liver triglycerides (ob/ob mice; [3]) was 32.54 μg/mg liver and 89.34 μg/mg liver and 118.92 μg/mg liver and 123.01 μg/mg liver and 111.66 μg/mg liver and 54.15 μg/mg liver and 66.99 μg/mg liver and 69.20 μg/mg liver and 107.70 μg/mg liver and 29.81 μg/mg liver and the liver fatty acids (ob/ob mice; [4]) was 47.00 nmol/mg liver. The liver total cholesterol (ob/ob mice; [4]) was 14.47 μg/mg liver, the liver triglycerides (ob/ob mice; [4]) was 115.44 μg/mg liver and the liver fatty acids (ob/ob mice; [5]) was 29.78 nmol/mg liver and 49.10 nmol/mg liver and 42.91 nmol/mg liver and 39.50 nmol/mg liver and 43.38 nmol/mg liver and 48.06 nmol/mg liver and 58.06 nmol/mg liver and 46.42 nmol/mg liver and 53.47 nmol/mg liver and 59.33 nmol/mg liver. For the same compound, the liver total cholesterol (ob/ob mice; [5]) was 11.02 μg/mg liver and 14.95 μg/mg liver and 15.25 μg/mg liver and 11.27 μg/mg liver and 14.07 μg/mg liver and 16.04 μg/mg liver and 17.20 μg/mg liver and 13.65 μg/mg liver and 14.90 μg/mg liver and 17.30 μg/mg liver, the liver triglycerides (ob/ob mice; [5]) was 71.81 μg/mg liver and 110.46 μg/mg liver and 96.59 μg/mg liver and 67.76 μg/mg liver and 106.16 μg/mg liver and 153.12 μg/mg liver and 128.22 μg/mg liver and 157.22 μg/mg liver and 124.56 μg/mg liver and 138.07 μg/mg liver and the liver fatty acids (ob/ob mice; [6]) was 42.4 nmol/mg liver. The liver total cholesterol (ob/ob mice; [6]) was 13.8 μg/mg liver, the liver triglycerides (ob/ob mice; [6]) was 106.3 μg/mg liver and the liver fatty acids (ob/ob mice; [7]) was 46.82 nmol/mg liver and 11.67* nmol/mg liver and 43.19 nmol/mg liver and 56.93 nmol/mg liver and 36.64 nmol/mg liver and 43.21 nmol/mg liver and 40.58 nmol/mg liver and 33.97 nmol/mg liver and 38.27 nmol/mg liver and 41.87 nmol/mg liver. The liver total cholesterol (ob/ob mice; [7]) was 16.75 μg/mg liver and 7.14* μg/mg liver and 13.56 μg/mg liver and 17.52 μg/mg liver and 11.98 μg/mg liver and 14.67 μg/mg liver and 14.39 μg/mg liver and 13.53 μg/mg liver and 12.83 μg/mg liver and 9.07 μg/mg liver, the liver triglycerides (ob/ob mice; [7]) was 115.27 μg/mg liver and 10.45* μg/mg liver and 99.74 μg/mg liver and 160.82 μg/mg liver and 71.59 μg/mg liver and 95.60 μg/mg liver and 114.62 μg/mg liver and 92.80 μg/mg liver and 91.36 μg/mg liver and 115.09 μg/mg liver and the “exposure at 1 hour after dosing relative to healthy mice” value ([1]; acute liver injury model vs healthy mice) was “approximately 2 fold”. It also gave a concentration at 1 h ([1]; 5 mg/kg, day 21) of 20.4 µM, a concentration at 1 h ([1]; 20 mg/kg, day 21) of 112 µM and a concentration at 1 h ([1]; 40 mg/kg, day 9, 4 animals) of 136 µM.
